The results in this text go back to ChEMBL document CHEMBL5357029, “Informatics and Computational Approaches for the Discovery and Optimization of Natural Product-Inspired Inhibitors of the SARS-CoV-2 2'-O-Methyltransferase” (J Nat Prod, 2024).

In data set [1] the test system is PBMC. Kind of data set: Cytotoxicity against human PBMC cells assessed as inhibition of cell proliferation incubated for 2 to 4 days by CellTiter 96 non-radioactive cell proliferation assay. The format is toxicity, cell-based. Particulars: time 2-4 day.
Data set [2] in a line: (§1) Cytotoxicity against African green monkey Vero cells assessed as inhibition of cell proliferation incubated for 2 to 4 days by CellTiter 96 non-radioactive cell proliferation assay. Type of data set: toxicity, cell-based. Particulars: chlorocebus sabaeus, Vero cells; time 2-4 day.
Data set [3] relates to SARS-CoV-2. Description: Antiviral activity against SARS-CoV-2 USA-WA1/2020 infected in african green monkey Vero cells assessed as reduction in viral replication by qRT-PCR analysis. Particulars: Severe acute respiratory syndrome coronavirus 2, USA-WA1/2020, Vero. Type of data set: functional, organism-based. A general note: Quantitative PCR measures a nucleic acid by following its amplification.

A short description of data set [4]: Inhibition of SARS-CoV-2 nsp10 (1 to 139 residues)/nsp16 (1 to 298 residues) expressed in Escherichia coli BL21(DE3)RIL cells using RNA and [3H]SAM as substrate incubated for 1 hrs by SPA-based assay. Also on record: species or system Severe acute respiratory syndrome coronavirus 2.
Data set [5] has as its system Severe acute respiratory syndrome coronavirus 2. Kind of data set: Inhibition of SARS-CoV-2 nsp10/nsp16 2'-O-methyltransferase activity expressed in NiCo21 (DE3) cells using m7GpppAUUAA and S-adenosylmethionine as substrate at 10 uM incubated for 25 mins by luminescence based MTase Glo assay.
Data set [6] is described as follows: Inhibition of SARS-CoV-2 nsp10/nsp16 2'-O-methyltransferase activity expressed in NiCo21 (DE3) cells using m7GpppAUUAA and S-adenosylmethionine as substrate by filter binding assay. The arrangement: species or system Severe acute respiratory syndrome coronavirus 2.
Data set [7] relates to Vero. Described as §1. Particulars: chlorocebus sabaeus, vero; time 2-4 day. The format is toxicity, cell-based.

The source made the active and inactive calls. No cut-off for these calls is given here.

What is called CC50 is the concentration giving 50% cytotoxicity. The term EC50 denotes the midpoint of the concentration-response curve. For the molecule `CCC(CC)COC(=O)[C@H](C)N[P@](=O)(OC[C@H]1O[C@@](C#N)(c2ccc3c(N)ncnn23)[C@H](O)[C@@H]1O)Oc1ccccc1`, the values for the CC50 in data set [1] and in data set [2] were 2 µM and above 100 µM, respectively. Also, in data set [3], the EC50 worked out at 2.3 µM.

A word on the IC50: it is the point on the concentration scale where inhibition reaches its midpoint. On to `Nc1ncnc2c1ncn2[C@@H]1O[C@H](C[C@@H](N)CC[C@H](N)C(=O)O)[C@@H](O)[C@H]1O` [SINEFUNGIN], for which, in data set [4], the IC50 came out at 3.4 µM. In data set [5], the inhibition result is “Active”.

As to `CC1=CC[C@H]2[C@H](C1)c1c(/C=C/c3ccc(O)cc3)cc(O)cc1OC2(C)C`, the inhibition result in data set [5] was “Active”. In addition, the IC50 in data set [6] worked out at 13.6 µM. The CC50 in data set [1] worked out at 60.4 µM; in data set [7], 11.9 µM. Also, the EC50 in data set [3] was 4.7 µM.

On to `CC1=CC[C@H]2[C@H](C1)c1c(O)cc(/C=C/c3ccc(O)cc3)cc1OC2(C)C`, for which, in data set [5], the inhibition entry was “Active”. In data set [6], the IC50 came to 13.3 µM. The results for the CC50 in data set [1] and in data set [7] were 53.4 µM and 22.3 µM, respectively. In addition, the EC50 in data set [3] stood at 7 µM.
